Reference: patent US20230089715A1, “MASITINIB FOR THE TREATMENT OF A MULTIPLE SCLEROSIS PATIENT SUBPOPULATION” (AB SCIENCE, priority 2020, published 2023)

Test system: patients with progressive multiple sclerosis (PPMS or non-active SPMS)
Assay: Study AB07002: randomized, double-blind, placebo-controlled phase 3 study, overall EDSS change from baseline
Format: in vivo, human
Parameters: key to LSM EDSS, MAS (overall EDSS change from baseline): LS mean EDSS change from baseline; positive value = worsening
Conditions: 4.5 mg/kg/day oral, 96 weeks
Method: An international, multicenter, randomized, double-blind, placebo-controlled phase 3 study was conducted with the objective to evaluate oral masitinib at a dose of 4.5 mg/kg/day as a treatment for progressive multiple sclerosis (progressive MS), as defined hereinabove. […] Eligible patients were treated for 96 weeks with masitinib at a dose of 4.5 mg/kg/day (mg per kilo body weight per day) or with placebo. Primary endpoint was overall EDSS change from baseline using a repeated analysis of covariance model (i.e., ANCOVA GEE model on all measurements from week 12 (W12) to week 96 (W96)). Results are expressed as least-squares means difference, illustrating the progression of EDSS score, that is to say the change over time in the EDSS score or in other words the difference between the EDSS score at baseline and the EDSS score after treatment with masitinib or with placebo (a positive value indicates a worsening of the patient). Treatment-effect is reported as between-group difference (ΔLSM, negative value indicates a beneficial effect of treatment with masitinib as compared to treatment with placebo). […] Patients suffering from a disease other than MS that would better explain their neurological clinical signs and symptoms and/or lesions observed with magnetic resonance imaging (“MRI lesions”) were excluded. Subpopulation analyses of primary endpoint data from study AB07002 assessed the impact of the clinical markers ‘time from onset’ with respect to baseline (i.e., date of treatment initiation), derived from the estimated date of first clinical MS symptom(s), or ‘time from diagnosis’ with respect to baseline (i.e., date of treatment initiation), on masitinib efficacy in patients with progressive MS (see Example 3). ‘Time from onset’ is derived from the date (year/month/day, year/month, or year) of first clinical symptom(s) with duration calculated from date of treatment initiation. The date of first symptom(s) is typically determined retrospectively from medical history, for example from medical records and patient/caregiver historical recall of MS related symptoms following a clinically definite diagnosis. Imputation of missing data can be handled using various methods, one example of which is the following approach: if the information regarding day is missing, the day is considered to be the last day of the month; if the day and month are missing, the day is considered to be the last day of June. ‘Time from diagnosis’ of progressive MS, is ideally based on a clinically definite diagnosis of progressive MS as determined by a MS specialist neurologist. In practice it is derived from the date (year/month/day, year/month, or year) of first clinically definite diagnosis of progressive MS, i.e., PPMS or non-active SPMS, with duration calculated from date of treatment initiation. At the time of MS diagnosis, a provisional disease course should be specified (relapsing-remitting, primary progressive, or secondary progressive) and whether the course is active or not (non-active) and progressive or not based on the previous year's history. The phenotype should be periodically re-evaluated based on accumulated information. Comparison of subpopulation analyses with respect to the corresponding full analysis dataset (see Table 4) is reported as relative difference in ΔEDSS (R %). A large positive R % value indicates a subpopulation that receives greater benefit from masitinib treatment, while a negative R % value indicates a diminished treatment-effect or lack of discernable treatment-effect in the subpopulation.

[1] = PPMS, T(diag) > 2 Y and T(onset) > 5 Y
[2] = PPMS, complement T(diag) ≤ 2 Y or T(onset) ≤ 5 Y
[3] = Progressive MS, T(diag) > 2 Y and T(onset) > 5 Y

Compound: Cc1ccc(NC(=O)c2ccc(CN3CCN(C)CC3)cc2)cc1Nc1nc(-c2cccnc2)cs1 [masitinib, 4-(4-methylpiperazin-1-ylmethyl)-N-[4-methyl-3-(4-pyridin-3ylthiazol-2-ylamino)phenyl]benzamide]
- LSM EDSS, MAS (overall EDSS change from baseline) (PPMS, T(diag) > 1 Y): −0.004
- R % (relative difference in ΔEDSS with respect to full analysis dataset) (PPMS, T(diag) > 1 Y): 31%
- ΔEDSS (between group difference, treatment-effect vs placebo) (PPMS, T(diag) > 1 Y): −0.174
- LSM EDSS, MAS (overall EDSS change from baseline) [1]: −0.076
- ΔEDSS (between group difference, treatment-effect vs placebo) [1]: −0.283
- R % (relative difference in ΔEDSS with respect to full analysis dataset) (PPMS, T(diag) > 2 Y and T(onset) > 5 Y, 4.5 mg/kg/day): 113%
- LSM EDSS, MAS (overall EDSS change from baseline) (PPMS, T(diag) > 2 Y): −0.070
- ΔEDSS (between group difference, treatment-effect vs placebo) (PPMS, T(diag) > 2 Y): −0.246
- R % (relative difference in ΔEDSS with respect to full analysis dataset) (PPMS, T(diag) > 2 Y, 4.5 mg/kg/day): 85%
- LSM EDSS, MAS (overall EDSS change from baseline) (PPMS, T(diag) > 3 Y): −0.099
- ΔEDSS (between group difference, treatment-effect vs placebo) (PPMS, T(diag) > 3 Y): −0.211
- R % (relative difference in ΔEDSS with respect to full analysis dataset) (PPMS, T(diag) > 3 Y, 4.5 mg/kg/day): 59%
- LSM EDSS, MAS (overall EDSS change from baseline) (PPMS, T(diag) > 4 Y): 0.097
- R % (relative difference in ΔEDSS with respect to full analysis dataset) (PPMS, T(diag) > 4 Y): 25%
- ΔEDSS (between group difference, treatment-effect vs placebo) (PPMS, T(diag) > 4 Y): −0.166
- LSM EDSS, MAS (overall EDSS change from baseline) (PPMS, T(diag) ≤ 1 Y): −0.097
- ΔEDSS (between group difference, treatment-effect vs placebo) (PPMS, T(diag) ≤ 1 Y): 0.137
- LSM EDSS, MAS (overall EDSS change from baseline) (PPMS, T(diag) ≤ 2 Y): 0.190
- LSM EDSS, MAS (overall EDSS change from baseline) (PPMS, T(diag) ≤ 3 Y): 0.070
- ΔEDSS (between group difference, treatment-effect vs placebo) (PPMS, T(diag) ≤ 3 Y): 0.009
- LSM EDSS, MAS (overall EDSS change from baseline) (PPMS, T(diag) ≤ 4 Y): 0.099
- ΔEDSS (between group difference, treatment-effect vs placebo) (PPMS, T(diag) ≤ 4 Y): −0.089
- LSM EDSS, MAS (overall EDSS change from baseline) (PPMS, T(onset) > 1 Y): 0.040
- R % (relative difference in ΔEDSS with respect to full analysis dataset) (PPMS, T(onset) > 1 Y): −6%
- ΔEDSS (between group difference, treatment-effect vs placebo) (PPMS, T(onset) > 1 Y): −0.125
- LSM EDSS, MAS (overall EDSS change from baseline) (PPMS, T(onset) > 2 Y): 0.026
- R % (relative difference in ΔEDSS with respect to full analysis dataset) (PPMS, T(onset) > 2 Y): 5%
- ΔEDSS (between group difference, treatment-effect vs placebo) (PPMS, T(onset) > 2 Y): −0.139
- LSM EDSS, MAS (overall EDSS change from baseline) (PPMS, T(onset) > 3 Y): 0.021
- R % (relative difference in ΔEDSS with respect to full analysis dataset) (PPMS, T(onset) > 3 Y): 31%
- ΔEDSS (between group difference, treatment-effect vs placebo) (PPMS, T(onset) > 3 Y): −0.174
- LSM EDSS, MAS (overall EDSS change from baseline) (PPMS, T(onset) > 4 Y): 0.028
- R % (relative difference in ΔEDSS with respect to full analysis dataset) (PPMS, T(onset) > 4 Y): 22%
- ΔEDSS (between group difference, treatment-effect vs placebo) (PPMS, T(onset) > 4 Y): −0.162
- LSM EDSS, MAS (overall EDSS change from baseline) (PPMS, T(onset) > 5 Y): 0.029
- ΔEDSS (between group difference, treatment-effect vs placebo) (PPMS, T(onset) > 5 Y): −0.214
- R % (relative difference in ΔEDSS with respect to full analysis dataset) (PPMS, T(onset) > 5 Y, 4.5 mg/kg/day): 61%
- LSM EDSS, MAS (overall EDSS change from baseline) (PPMS, T(onset) ≤ 3 Y): 0.111
- ΔEDSS (between group difference, treatment-effect vs placebo) (PPMS, T(onset) ≤ 3 Y): 0.349
- LSM EDSS, MAS (overall EDSS change from baseline) (PPMS, T(onset) ≤ 4 Y): −0.082
- ΔEDSS (between group difference, treatment-effect vs placebo) (PPMS, T(onset) ≤ 4 Y): 0.051
- LSM EDSS, MAS (overall EDSS change from baseline) (PPMS, T(onset) ≤ 5 Y): 0.314
- LSM EDSS, MAS (overall EDSS change from baseline) [2]: 0.180
- ΔEDSS (between group difference, treatment-effect vs placebo) [2]: 0.118
- LSM EDSS, MAS (overall EDSS change from baseline) (PPMS, full analysis dataset): 0.030
- ΔEDSS (between group difference, treatment-effect vs placebo) (PPMS, full analysis dataset, 4.5 mg/kg/day): −0.133
- ΔEDSS (between group difference, treatment-effect vs placebo) (PPMS, full analysis dataset, listed as Masitinib, 4.5 mg/kg/day): non-significant trend
- LSM EDSS, MAS (overall EDSS change from baseline) (Progressive MS, T(diag) > 1 Y): −0.012
- R % (relative difference in ΔEDSS with respect to full analysis dataset) (Progressive MS, T(diag) > 1 Y): 10%
- ΔEDSS (between group difference, treatment-effect vs placebo) (Progressive MS, T(diag) > 1 Y): −0.109
- LSM EDSS, MAS (overall EDSS change from baseline) [3]: −0.057
- ΔEDSS (between group difference, treatment-effect vs placebo) [3]: −0.162
- R % (relative difference in ΔEDSS with respect to full analysis dataset) (Progressive MS, T(diag) > 2 Y and T(onset) > 5 Y, 4.5 mg/kg/day): 64%
- LSM EDSS, MAS (overall EDSS change from baseline) (Progressive MS, T(diag) > 2 Y): −0.029
- ΔEDSS (between group difference, treatment-effect vs placebo) (Progressive MS, T(diag) > 2 Y): −0.133
- R % (relative difference in ΔEDSS with respect to full analysis dataset) (Progressive MS, T(diag) > 2 Y, 4.5 mg/kg/day): 34%
- LSM EDSS, MAS (overall EDSS change from baseline) (Progressive MS, T(diag) > 3 Y): −0.068
- R % (relative difference in ΔEDSS with respect to full analysis dataset) (Progressive MS, T(diag) > 3 Y): 39%
- ΔEDSS (between group difference, treatment-effect vs placebo) (Progressive MS, T(diag) > 3 Y): −0.138
- LSM EDSS, MAS (overall EDSS change from baseline) (Progressive MS, T(diag) > 4 Y): −0.053
- R % (relative difference in ΔEDSS with respect to full analysis dataset) (Progressive MS, T(diag) > 4 Y): 48%
- ΔEDSS (between group difference, treatment-effect vs placebo) (Progressive MS, T(diag) > 4 Y): −0.147
- LSM EDSS, MAS (overall EDSS change from baseline) (Progressive MS, T(diag) ≤ 1 Y): −0.099
